Results on one molecule are retold here after ChEMBL document CHEMBL1148587, “Imidazo[1,2-a]pyrimidines as functionally selective and orally bioavailable GABA(A)alpha2/alpha3 binding site agonists for the treatment of anxiety disorders” (J Med Chem, 2006).

The test system of the experiment is Rattus norvegicus. The experiment is described as follows: Activity in rat elevated plus maze assay at 5 mg/kg, ip. The class given is functional, organism-based. On the set-up: dose 5 mg/kg.

Active and inactive are the calls of the source. No cut-off for these calls is given here.

As to `CNC1=Nc2ccc(Cl)cc2C(c2ccccc2)=[N+]([O-])C1`, the result was Active.
